Laboratory results: ChEMBL document CHEMBL1201862, “PubChem BioAssay data set” (2004)
The source made the active and inactive calls.

How the values were obtained:
[1] = Vero E6 cell cytotoxicity, dose response, cytotoxicity control for non-replicating M. tuberculosis project, secondary assay (AID 492998); format: functional, VeroE6; conditions: Vero C1008
[2] = Counterscreen for activators of the function of SWI/SNF related, matrix associated, actin dependent regulator of chromatin, subfamily a, member 2 (SMARCA2, BRM): Luminescence-based cell-based high throughput dose response assay to identify non-selective compounds using the VP16 reporter assay.; format: functional
[3] = THP-1 cell cytotoxicity, dose response, cytotoxicity control for non-replicating M. tuberculosis project (AID 489025); format: functional
[4] = molecular target: SWI/SNF-related matrix-associated actin-dependent regulator of chromatin subfamily A member 2 (Homo sapiens, UniProt P51531); assay: Luminescence-based cell-based high throughput dose response assay to identify activators of the function of SWI/SNF related, matrix associated, actin dependent regulator of chromatin, subfamily a, member 2 (SMARCA2, BRM).; format: functional
SWI/SNF-related matrix-associated actin-dependent regulator of chromatin subfamily A member 2, sequence (P51531 whole entry): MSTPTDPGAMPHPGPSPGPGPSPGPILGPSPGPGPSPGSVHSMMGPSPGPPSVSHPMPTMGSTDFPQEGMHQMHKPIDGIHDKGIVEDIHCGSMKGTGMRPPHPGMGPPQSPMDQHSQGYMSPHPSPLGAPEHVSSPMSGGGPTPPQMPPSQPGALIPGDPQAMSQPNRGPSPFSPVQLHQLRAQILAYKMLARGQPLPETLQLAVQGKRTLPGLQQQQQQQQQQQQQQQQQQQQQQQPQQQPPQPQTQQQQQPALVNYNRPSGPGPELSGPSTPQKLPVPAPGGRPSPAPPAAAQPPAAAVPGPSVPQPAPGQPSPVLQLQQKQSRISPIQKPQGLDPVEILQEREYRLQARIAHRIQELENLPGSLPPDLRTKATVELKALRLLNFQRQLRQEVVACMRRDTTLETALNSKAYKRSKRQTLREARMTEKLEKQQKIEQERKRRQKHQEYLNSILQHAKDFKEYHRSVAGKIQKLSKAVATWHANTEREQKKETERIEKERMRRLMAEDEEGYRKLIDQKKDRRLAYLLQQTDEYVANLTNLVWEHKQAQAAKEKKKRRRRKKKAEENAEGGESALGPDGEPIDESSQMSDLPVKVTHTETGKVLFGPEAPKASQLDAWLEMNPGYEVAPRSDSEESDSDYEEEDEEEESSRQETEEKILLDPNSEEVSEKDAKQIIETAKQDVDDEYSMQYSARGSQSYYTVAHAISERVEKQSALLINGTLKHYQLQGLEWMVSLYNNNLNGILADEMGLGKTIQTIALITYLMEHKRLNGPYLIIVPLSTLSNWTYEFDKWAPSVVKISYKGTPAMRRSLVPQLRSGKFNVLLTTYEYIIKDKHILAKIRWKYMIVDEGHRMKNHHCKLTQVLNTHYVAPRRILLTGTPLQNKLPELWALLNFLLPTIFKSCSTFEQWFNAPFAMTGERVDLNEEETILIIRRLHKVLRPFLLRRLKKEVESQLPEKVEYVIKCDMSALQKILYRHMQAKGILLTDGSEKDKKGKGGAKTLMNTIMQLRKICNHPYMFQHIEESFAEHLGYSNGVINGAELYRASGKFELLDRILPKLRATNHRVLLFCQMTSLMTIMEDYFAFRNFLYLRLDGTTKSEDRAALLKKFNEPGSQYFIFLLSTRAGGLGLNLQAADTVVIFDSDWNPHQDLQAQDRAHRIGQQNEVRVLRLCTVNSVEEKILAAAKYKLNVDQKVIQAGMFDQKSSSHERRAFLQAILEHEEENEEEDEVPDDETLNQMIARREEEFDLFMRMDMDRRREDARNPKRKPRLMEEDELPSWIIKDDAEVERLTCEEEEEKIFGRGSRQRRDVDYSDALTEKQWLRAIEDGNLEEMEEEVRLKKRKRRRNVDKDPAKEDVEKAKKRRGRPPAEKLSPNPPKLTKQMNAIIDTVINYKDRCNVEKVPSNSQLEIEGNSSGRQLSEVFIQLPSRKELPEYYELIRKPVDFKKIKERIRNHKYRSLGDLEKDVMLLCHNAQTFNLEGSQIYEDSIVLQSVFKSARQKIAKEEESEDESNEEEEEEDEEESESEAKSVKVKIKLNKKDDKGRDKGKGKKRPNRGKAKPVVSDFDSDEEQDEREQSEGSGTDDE

cells [5] = format: functional
SUMO E1/E2 = SUMO E1/E2 (Homo sapiens, UniProt P63279+Q9UBE0+Q9UBT2); assay: SAR analysis of SUMOylation using HTRF in an in-Vitro dose response assay. [Related pubchem assays (depositor defined):AID2006, AID2011, AID2018, AID2069, AID2658]; format: functional
SUMO E1/E2, sequence (Q9UBE0 whole entry): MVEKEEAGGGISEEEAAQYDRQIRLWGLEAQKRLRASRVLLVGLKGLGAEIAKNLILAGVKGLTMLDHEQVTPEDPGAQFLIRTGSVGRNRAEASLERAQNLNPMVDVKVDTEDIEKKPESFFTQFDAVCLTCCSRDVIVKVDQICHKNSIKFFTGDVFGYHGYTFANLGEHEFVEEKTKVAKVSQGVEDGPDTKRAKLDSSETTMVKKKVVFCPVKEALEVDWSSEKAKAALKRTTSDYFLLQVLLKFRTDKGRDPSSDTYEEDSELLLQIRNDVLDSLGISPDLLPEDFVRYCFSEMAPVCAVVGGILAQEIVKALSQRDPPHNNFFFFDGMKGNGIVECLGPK
SUMO E1/E2, sequence (Q9UBT2 whole entry): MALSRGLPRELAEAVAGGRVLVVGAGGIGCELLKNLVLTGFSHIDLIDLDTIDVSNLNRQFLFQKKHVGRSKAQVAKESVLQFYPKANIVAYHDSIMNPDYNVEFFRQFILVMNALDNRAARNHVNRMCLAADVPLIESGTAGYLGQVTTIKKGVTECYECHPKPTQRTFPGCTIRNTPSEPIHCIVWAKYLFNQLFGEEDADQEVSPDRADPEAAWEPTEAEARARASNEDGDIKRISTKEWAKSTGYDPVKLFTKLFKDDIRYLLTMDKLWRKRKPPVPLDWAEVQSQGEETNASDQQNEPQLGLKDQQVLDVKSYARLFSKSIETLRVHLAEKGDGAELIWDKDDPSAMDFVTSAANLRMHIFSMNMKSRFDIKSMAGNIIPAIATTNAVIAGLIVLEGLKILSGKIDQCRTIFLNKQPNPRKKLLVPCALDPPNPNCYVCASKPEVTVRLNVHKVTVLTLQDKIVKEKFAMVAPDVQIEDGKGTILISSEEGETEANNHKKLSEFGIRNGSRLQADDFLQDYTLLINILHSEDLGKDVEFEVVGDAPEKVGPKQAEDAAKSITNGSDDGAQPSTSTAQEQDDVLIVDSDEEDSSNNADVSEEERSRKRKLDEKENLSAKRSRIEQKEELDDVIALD
SUMO E1/E2, sequence (P63279 whole entry): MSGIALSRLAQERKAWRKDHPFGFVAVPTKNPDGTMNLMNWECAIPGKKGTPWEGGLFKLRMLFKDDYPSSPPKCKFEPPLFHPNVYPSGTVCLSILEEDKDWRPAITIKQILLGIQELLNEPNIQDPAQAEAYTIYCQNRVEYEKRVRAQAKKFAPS

Exodeoxyribonuclease V = molecular target: T1, Exodeoxyribonuclease V (Escherichia coli (strain K12), UniProt P04993+P07648+P08394); assay: E. coli RecBCD inhibitors, dose response, counter-screen for AddAB inhibitor project, absorbance, V66 E. coli, mutant T4 phage (AID 492957); format: functional, cell-based, Escherichia coli str. K-12 substr. MG1655
T1 sequence (P04993 whole entry): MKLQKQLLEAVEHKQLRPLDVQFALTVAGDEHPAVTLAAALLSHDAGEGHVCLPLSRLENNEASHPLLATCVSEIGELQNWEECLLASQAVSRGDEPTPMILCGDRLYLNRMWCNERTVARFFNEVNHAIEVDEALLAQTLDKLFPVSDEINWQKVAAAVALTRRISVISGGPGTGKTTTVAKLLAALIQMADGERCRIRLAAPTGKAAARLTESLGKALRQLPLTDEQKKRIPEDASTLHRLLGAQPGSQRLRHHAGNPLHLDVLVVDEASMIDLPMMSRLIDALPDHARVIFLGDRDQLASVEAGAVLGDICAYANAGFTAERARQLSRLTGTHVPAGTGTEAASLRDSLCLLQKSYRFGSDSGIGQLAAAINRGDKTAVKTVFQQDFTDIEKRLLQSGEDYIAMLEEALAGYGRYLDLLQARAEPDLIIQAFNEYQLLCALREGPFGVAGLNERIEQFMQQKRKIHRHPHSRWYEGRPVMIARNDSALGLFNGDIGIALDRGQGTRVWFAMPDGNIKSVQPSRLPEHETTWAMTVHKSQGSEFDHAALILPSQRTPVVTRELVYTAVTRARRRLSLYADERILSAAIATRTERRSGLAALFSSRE
T1 sequence (P07648 whole entry): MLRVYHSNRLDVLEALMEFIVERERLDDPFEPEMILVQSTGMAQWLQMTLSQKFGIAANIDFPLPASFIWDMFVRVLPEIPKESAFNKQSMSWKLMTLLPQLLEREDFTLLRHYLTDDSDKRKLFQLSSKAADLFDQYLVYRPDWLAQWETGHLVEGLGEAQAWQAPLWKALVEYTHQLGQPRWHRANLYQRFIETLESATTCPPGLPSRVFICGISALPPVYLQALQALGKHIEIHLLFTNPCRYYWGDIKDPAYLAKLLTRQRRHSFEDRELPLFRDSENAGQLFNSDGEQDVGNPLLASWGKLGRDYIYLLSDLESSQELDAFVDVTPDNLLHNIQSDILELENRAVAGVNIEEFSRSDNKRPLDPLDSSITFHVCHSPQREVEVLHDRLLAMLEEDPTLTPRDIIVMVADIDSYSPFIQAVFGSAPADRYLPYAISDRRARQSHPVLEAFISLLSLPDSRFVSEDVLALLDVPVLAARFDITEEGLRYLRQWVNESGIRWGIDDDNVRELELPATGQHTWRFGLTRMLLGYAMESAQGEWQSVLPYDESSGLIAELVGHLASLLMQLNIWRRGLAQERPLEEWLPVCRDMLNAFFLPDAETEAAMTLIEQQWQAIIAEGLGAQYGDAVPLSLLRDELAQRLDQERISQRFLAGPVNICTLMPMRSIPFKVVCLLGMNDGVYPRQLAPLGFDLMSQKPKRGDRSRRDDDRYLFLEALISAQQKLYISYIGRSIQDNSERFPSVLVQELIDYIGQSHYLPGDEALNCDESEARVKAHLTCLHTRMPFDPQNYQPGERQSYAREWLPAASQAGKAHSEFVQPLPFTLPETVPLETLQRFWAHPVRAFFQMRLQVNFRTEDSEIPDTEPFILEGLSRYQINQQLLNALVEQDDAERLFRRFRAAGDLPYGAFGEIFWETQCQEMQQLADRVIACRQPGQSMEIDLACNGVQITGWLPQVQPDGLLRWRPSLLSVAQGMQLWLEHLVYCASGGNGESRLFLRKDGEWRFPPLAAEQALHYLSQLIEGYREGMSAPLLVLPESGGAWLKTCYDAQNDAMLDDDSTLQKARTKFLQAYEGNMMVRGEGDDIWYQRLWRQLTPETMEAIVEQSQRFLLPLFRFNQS
T1 sequence (P08394 whole entry): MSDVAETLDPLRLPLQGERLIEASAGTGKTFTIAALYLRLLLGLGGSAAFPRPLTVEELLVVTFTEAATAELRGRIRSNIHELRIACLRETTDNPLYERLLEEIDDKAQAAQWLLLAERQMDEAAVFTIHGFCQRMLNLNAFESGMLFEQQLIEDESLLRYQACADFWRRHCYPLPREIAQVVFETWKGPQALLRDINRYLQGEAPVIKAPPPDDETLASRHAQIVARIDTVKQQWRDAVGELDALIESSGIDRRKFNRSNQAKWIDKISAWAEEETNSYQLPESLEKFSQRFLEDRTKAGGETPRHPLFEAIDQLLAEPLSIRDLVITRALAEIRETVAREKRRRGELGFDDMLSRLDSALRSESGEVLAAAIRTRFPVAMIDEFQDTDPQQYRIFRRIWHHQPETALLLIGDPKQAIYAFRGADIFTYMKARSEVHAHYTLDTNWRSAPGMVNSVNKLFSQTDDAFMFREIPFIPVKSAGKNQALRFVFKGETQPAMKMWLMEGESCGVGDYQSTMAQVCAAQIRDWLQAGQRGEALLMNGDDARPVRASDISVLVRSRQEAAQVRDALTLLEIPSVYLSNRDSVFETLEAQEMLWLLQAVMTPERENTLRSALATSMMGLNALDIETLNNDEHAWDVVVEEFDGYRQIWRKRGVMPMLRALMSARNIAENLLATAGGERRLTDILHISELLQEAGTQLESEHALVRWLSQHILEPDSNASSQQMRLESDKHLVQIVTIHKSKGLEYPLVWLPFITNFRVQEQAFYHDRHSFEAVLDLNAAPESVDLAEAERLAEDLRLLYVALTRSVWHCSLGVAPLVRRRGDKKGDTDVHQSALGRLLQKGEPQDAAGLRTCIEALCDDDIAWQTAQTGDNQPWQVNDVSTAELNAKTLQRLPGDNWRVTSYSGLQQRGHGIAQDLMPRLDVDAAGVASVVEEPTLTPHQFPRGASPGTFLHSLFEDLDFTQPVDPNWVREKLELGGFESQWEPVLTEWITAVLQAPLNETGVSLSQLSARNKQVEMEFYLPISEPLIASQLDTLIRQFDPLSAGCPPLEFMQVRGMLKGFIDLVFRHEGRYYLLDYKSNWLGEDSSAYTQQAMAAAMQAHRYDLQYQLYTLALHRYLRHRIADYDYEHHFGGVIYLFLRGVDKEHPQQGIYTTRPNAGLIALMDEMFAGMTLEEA

[6] = Counterscreen for AddAB inhibitors: absorbance-based bacterial cell-based high throughput dose response assay for inhibitors of bacterial viability. [Related pubchem assays (depositor defined):AID435030, AID449728, AID449731, AID488942, AID488955, AID488956]; format: functional
[7] = inhibitors of SNCA 5'UTR-driven reporter translation, confirmation, H4 neuroglioma cells, luminescence (AID 1988); format: functional, cell-based
cells [8] = format: functional, cell-based
[9] = Luminescence Cell-Based Dose Response HTS to Identify Inhibitors of 5'UTR Stem-Loop Driven Prion Protein mRNA Translation in H4 Neuroglioblastoma Cells. [Related pubchem assays: 1827 (Project Summary), 1813 (Primary HTS)]; format: functional
cells [10] = format: functional, cell-based; remark: listed apart in the source
[11] = inhibitors of firefly luciferase expression or activity, dose response, H4 neuroglioma cells, luminescence (AID 1990); format: functional, cell-based
[12] = molecular target: 5-hydroxytryptamine receptor 5A (Homo sapiens, UniProt P47898); assay: Counterscreen for agonists of OPRM1-OPRD1 heterodimerization: luminescence-based cell-based high throughput dose response assay to identify agonists of 5-hydroxytryptamine (serotonin) 5A receptor (HTR5A). [Related pubchem assays (depositor defined):AID504326, AID504355, AID504692, AID504904, AID504905]; format: functional
5-hydroxytryptamine receptor 5A, sequence (P47898 whole entry): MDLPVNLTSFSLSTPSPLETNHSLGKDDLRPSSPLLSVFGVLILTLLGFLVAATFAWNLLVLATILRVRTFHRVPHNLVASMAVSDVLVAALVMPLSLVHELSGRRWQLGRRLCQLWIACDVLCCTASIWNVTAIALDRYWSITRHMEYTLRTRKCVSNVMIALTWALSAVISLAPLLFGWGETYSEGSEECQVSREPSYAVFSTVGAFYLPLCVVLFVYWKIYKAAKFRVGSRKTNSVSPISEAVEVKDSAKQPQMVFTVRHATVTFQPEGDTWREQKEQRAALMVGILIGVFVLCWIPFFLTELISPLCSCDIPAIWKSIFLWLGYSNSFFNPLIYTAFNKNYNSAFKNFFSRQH

[13] = molecular target: Delta-type opioid receptor (Homo sapiens, UniProt P41143); assay: Counterscreen for agonists of heterodimerization of the mu 1 (OPRM1) and delta 1 (OPRD1) opioid receptors: Luminescence-based cell-based high throughput dose response assay to identify agonists of OPRD1 homodimerization. [Related pubchem assays (depositor defined):AID504326, AID504355, AID504692, AID504904, AID504905]; format: functional
Mu-type opioid receptor = Mu-type opioid receptor (Homo sapiens, UniProt P35372); assay: Counterscreen for agonists of heterodimerization of the mu 1 (OPRM1) and delta 1 (OPRD1) opioid receptors: Luminescence-based cell-based high throughput dose response assay to identify agonists of OPRM1 homodimerization.; format: functional;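 note: U2OS cells expressing OPRM1 and beta-arrestin as split beta-galactosidase partners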
Mu-type opioid receptor, sequence (P35372 whole entry): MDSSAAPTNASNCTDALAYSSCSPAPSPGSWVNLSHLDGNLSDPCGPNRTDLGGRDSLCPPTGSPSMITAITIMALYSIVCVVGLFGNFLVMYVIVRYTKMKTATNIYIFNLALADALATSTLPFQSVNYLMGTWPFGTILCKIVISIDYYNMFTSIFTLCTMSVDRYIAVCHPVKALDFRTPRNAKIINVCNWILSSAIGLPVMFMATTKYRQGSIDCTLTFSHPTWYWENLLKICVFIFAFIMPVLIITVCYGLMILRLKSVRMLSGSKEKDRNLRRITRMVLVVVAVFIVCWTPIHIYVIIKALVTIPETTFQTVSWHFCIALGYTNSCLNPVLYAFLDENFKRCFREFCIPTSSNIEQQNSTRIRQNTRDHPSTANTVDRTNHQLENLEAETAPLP

Cytochrome P450 2D6 = Cytochrome P450 2D6 (Homo sapiens, UniProt P10635);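 note: CYP2D6 member of a cytochrome P450 panel assay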
Cytochrome P450 2D6, sequence (P10635 whole entry): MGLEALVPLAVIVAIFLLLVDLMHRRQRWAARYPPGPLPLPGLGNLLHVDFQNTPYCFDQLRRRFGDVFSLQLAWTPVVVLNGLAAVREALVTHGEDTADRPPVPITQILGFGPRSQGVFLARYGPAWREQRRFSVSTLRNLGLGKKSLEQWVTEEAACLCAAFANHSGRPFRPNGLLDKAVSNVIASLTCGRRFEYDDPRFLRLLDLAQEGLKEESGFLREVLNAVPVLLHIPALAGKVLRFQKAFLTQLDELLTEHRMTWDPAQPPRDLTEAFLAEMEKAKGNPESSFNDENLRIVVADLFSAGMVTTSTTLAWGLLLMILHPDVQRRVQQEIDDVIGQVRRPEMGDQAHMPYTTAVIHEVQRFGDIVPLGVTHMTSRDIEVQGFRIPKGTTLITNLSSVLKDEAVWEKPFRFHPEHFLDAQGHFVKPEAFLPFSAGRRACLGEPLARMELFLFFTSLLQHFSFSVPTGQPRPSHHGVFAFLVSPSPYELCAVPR

Cytochrome P450 2C9 = Cytochrome P450 2C9 (Homo sapiens, UniProt P11712)
Cytochrome P450 2C9, sequence (P11712 whole entry): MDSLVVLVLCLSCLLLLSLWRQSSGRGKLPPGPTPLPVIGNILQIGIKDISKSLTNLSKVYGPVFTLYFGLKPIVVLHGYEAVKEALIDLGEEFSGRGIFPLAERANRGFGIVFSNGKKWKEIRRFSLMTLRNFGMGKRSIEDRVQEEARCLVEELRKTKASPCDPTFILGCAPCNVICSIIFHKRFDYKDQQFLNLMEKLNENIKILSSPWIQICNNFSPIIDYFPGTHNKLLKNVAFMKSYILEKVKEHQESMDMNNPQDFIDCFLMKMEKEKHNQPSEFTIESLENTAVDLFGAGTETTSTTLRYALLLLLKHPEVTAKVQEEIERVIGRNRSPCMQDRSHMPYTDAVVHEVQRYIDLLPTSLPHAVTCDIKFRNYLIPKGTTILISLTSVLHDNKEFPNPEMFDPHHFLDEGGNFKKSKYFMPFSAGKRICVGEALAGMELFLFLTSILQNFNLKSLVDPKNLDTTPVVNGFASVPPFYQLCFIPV

Cytochrome P450 3A4 = Cytochrome P450 3A4 (Homo sapiens, UniProt P08684);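 note: CYP3A4 tested as one member of a cytochrome P450 panel screen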
Cytochrome P450 3A4, sequence (P08684 whole entry): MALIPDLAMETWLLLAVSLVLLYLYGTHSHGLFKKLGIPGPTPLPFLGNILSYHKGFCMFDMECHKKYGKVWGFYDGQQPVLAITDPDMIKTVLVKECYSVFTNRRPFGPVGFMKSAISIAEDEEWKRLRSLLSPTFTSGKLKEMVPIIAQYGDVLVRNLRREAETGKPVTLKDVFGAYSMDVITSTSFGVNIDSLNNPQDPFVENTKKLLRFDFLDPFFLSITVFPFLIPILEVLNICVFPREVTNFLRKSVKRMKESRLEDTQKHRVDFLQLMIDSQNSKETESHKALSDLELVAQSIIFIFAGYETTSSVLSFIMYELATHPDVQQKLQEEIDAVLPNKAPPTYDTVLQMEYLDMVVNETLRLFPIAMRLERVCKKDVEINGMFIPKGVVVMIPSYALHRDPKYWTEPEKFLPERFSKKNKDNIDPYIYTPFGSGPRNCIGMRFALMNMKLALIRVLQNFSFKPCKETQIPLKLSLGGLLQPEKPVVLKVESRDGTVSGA

HEK293 [14] = assay: cells; conditions: Homo sapiens
HEK293 [15] = assay: cells; conditions: Homo sapiens; remark: listed apart in the source
[16] = inhibitors of intracellular T. cruzi replication, confirmation, NIH3T3 host cells, beta-gal luminescence (AID 2044); format: functional, cell-based;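 note: intracellular parasites grown in NIH/3T3 mouse fibroblasts as host cells; luminescent beta-galactosidase reporter signal from transgenic T. cruzi replicating inside host cells; inhibitors lower the luminescence signal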
INS1 = assay: beta cell apoptosis inhibitors, cytokine rescue, dose response, luminescence, retest (AID 449756); format: functional, cell-based; conditions: Rattus norvegicus;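 note: cell death triggered by IL-1 beta plus TNF-alpha plus IFN-gamma mixture; protective hits raise ATP signal compared with cytokine alone wells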
[17] = cytotoxicity toward NIH3T3 fibroblasts, dose response, counter-screen, cell-based, ATP luminescence, mouse fibroblasts (AID 2010); format: functional;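 note: cells exposed to compound for about 90 hours before reading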
Cytochrome P450 2C19 = Cytochrome P450 2C19 (Homo sapiens, UniProt P33261); assay: Cytochrome panel assay with activity outcomes. Panel member name: p450-cyp2c19 Compounds with AC50 equal or less than 10 uM are considered active; format: functional; conditions: read-out: AC50

CCS(=O)(=O)c1c([N+](=O)[O-])ncn1C
CC50 [1]: > 20 µM (active) | EC50 [2]: > 91.1 µM (inactive) | CC50 [3]: > 40 µM (active) | EC50 [4]: > 91.1 µM (inactive) | IC50 (cells [5]): 16.2 µM (active)

CC(C)CCCN1C(=O)NC(=O)/C(=C\c2ccc[nH]2)C1=O
CC50 [1]: > 20 µM (active) | CC50 [3]: > 40 µM (active) | IC50 (cells [5]): 1.22 µM (active)

Cc1ccc(C=Nc2ccccc2C(N)=O)s1
IC50 (SUMO E1/E2): 22.2 µM (active)

O=C(NC(NC(=S)Nc1ccc(Cl)cc1)C(Cl)(Cl)Cl)c1ccco1 (centres undefined)
IC50 (Exodeoxyribonuclease V): > 119 µM (inactive) | IC50 [6]: > 119 µM (inactive)

Cc1c(Br)c([N+](=O)[O-])nn1C(C)C(=O)NCc1ccco1 (centres undefined)
IC50 (Exodeoxyribonuclease V): > 119 µM (inactive) | IC50 [6]: > 119 µM (inactive)

CC(=O)Nc1nc2ccccc2n1CCOc1ccccc1Cl
CC50 [1]: 17.5 µM (active) | EC50 [7]: > 120 µM (not active) | CC50 [3]: > 40 µM (active) | EC50 (cells [8]): 56.5 µM (active) | EC50 [9]: > 120 µM (not active) | EC50 (cells [10]): > 350 µM (not active) | IC50 (cells [5]): 2.72 µM (active) | EC50 [11]: 16.7 µM (active)

CCNS(=O)(=O)c1ccc(NC(=O)Nc2ccc3c(c2)OCO3)cc1
EC50 [12]: > 92.5 µM (inactive) | EC50 [13]: > 92.5 µM (inactive) | EC50 (Mu-type opioid receptor): 42.8 µM (inactive)

Fc1ccc(C2Nc3ccccc3C3C=CCC32)cc1 (centres undefined)
IC50 (SUMO E1/E2): > 100 µM (inactive)

CCOC(=O)c1c(C)c(C(=O)NCCN2CCOCC2)c(C)n1CC
AC50 (Cytochrome P450 2D6): inconclusive | AC50 (Cytochrome P450 2C9): inconclusive | AC50 (Cytochrome P450 3A4): 25.1 µM (inconclusive)

CN(C)C(=S)N=c1ssc(=S)n1Cc1ccco1
EC50 (HEK293 [14]): > 59.6 µM (inactive) | EC50 (HEK293 [15]): > 59.6 µM (inactive)

Cc1cc(N/N=C/c2ccc(O)cc2O)nc(-c2ccccc2O)n1
EC50 [16]: 1.16 µM (active) | AC50 (INS1): 0.734 µM (active) | EC50 [17]: 4.8 µM (active) | EC50 (cells [8]): 8.62 µM (active) | IC50 (Exodeoxyribonuclease V): > 119 µM (inactive) | EC50 (cells [10]): > 350 µM (not active) | IC50 [6]: > 119 µM (inactive)

NC(=O)/C(=N\O)c1ccccc1
AC50 (Cytochrome P450 2D6): inconclusive | AC50 (Cytochrome P450 2C19): 0.00562 µM (inconclusive)
